Measured values: patent publication US10364245B2 (CHIESI FARMACEUTICI S.p.A., priority 2017, dated 2019)
Counter-ions that a name gives are not always drawn.

Experiments:
p38 alpha = target: T1, p38 alpha (Homo sapiens, UniProt Q16539); experiment: P38 alpha enzyme inhibition assay (Alphascreen kinase activity assay); assay type: biochemical; settings: 100 pM p38 alpha, 2 hours preincubation at 25° C., 250 μM ATP, ATF-2 fusion protein; read-out: p38α inhibition
T1 construct: purchased Invitrogen PV3304
How it was run: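 100 pM p38 alpha preincubated 2 h at 25 °C with compound and 0.3 μg/ml ATF-2 fusion substrate (HEPES pH 7.5, MgCl2, 1% DMSO). Reaction started with 250 μM ATP, run 1 h at 25 °C, stopped with EDTA; phospho-ATF2 detected by AlphaScreen luminescence. IC50 from concentration-response curves.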

[1] = test system: Peripheral Blood Mononuclear Cells (PBMCs), TNFα release; experiment: LPS-stimulated PBMC TNFα release assay; assay type: cell-based; settings: human PBMC, LPS (10 ng/ml), 18 h, compound 1 h before LPS; read-out: LPS-stimulated PBMC TNFα release inhibition
How it was run: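 Human PBMCs from healthy donors, serum-starved 3 h, then pre-incubated 1 h at 37 °C with compound in 1% FBS medium before LPS (10 ng/ml) for 18 h. Supernatant TNFα measured by MSD; IC50 from dose-response as % inhibition of control, at least three experiments.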

T1 sequence (Q16539 whole entry, the tested form may be a part): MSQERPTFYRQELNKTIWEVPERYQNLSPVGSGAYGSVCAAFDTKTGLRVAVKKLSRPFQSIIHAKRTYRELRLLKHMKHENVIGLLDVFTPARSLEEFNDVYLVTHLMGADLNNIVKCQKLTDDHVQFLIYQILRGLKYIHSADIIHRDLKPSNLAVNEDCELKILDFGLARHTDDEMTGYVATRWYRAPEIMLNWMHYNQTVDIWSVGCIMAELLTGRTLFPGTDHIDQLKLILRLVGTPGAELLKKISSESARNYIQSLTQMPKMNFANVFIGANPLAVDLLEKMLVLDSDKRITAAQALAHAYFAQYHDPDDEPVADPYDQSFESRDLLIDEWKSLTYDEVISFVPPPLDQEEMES

C[C@H]1CCCCN1c1nnc2ccc(O[C@@H]3CC[C@H](NC(=O)Nc4cc(C(C)(C)C)nc(CN(C)C)n4)c4ccccc43)cn12 [Example 15, 1-(6-(tert-Butyl)-2-((dimethylamino)methyl)pyrimidin-4-yl)-3-((1S,4R)-4-((3-((S)-2-methylpiperidin-1-yl)-[1,2,4]triazolo[4,3-a]pyridin-6-yl)oxy)-1,2,3,4-tetrahydronaphthalen-1-yl)urea]
IC50 (p38 alpha): < 1 nM | IC50 [1]: > 5 nM

CC[C@H](C)c1nnc2ccc(O[C@@H]3CC[C@H](NC(=O)Nc4cc(C(C)(C)C)nc(C(=O)NCCN(C)CC)n4)c4ccccc43)cn12 [Example 146, 4-(tert-butyl)-6-(3-((1S,4R)-4-((3-((S)-sec-butyl)-[1,2,4]triazolo[4,3-a]pyridin-6-yl)oxy)-1,2,3,4-tetrahydronaphthalen-1-yl)ureido)-N-(2-(ethyl(methyl)amino)-ethyl)pyrimidine-2-carboxamide]
IC50 (p38 alpha): < 1 nM | IC50 [1]: 1 to 5 nM

CNC(=O)c1nc(NC(=O)N[C@H]2CC[C@@H](Oc3ccc4nnc([C@]5(C)CCCN5C)n4c3)c3ccccc32)cc(C(C)(C)C)n1 [Example 38, 4-(tert-Butyl)-6-(3-((1S,4R)-4-((3-((S)-1,2-dimethylpyrrolidin-2-yl)-[1,2,4]triazolo[4,3-a]pyridin-6-yl)oxy)-1,2,3,4-tetrahydronaphthalen-1-yl)ureido)-N-methylpyrimidine-2-carboxamide]
IC50 (p38 alpha): < 1 nM | IC50 [1]: < 1 nM

CC(C)(C)c1cc(NC(=O)N[C@H]2CC[C@@H](Oc3ccc4nnc(C(C)(C)C)n4c3)c3ccccc32)nc(C(=O)NCCCN2CCCOCC2)n1 [Example 111, N-(3-(1,4-Oxazepan-4-yl)propyl)-4-(tert-butyl)-6-(3-((1S,4R)-4-((3-(tert-butyl)-[1,2,4]triazolo[4,3-a]pyridin-6-yl)oxy)-1,2,3,4-tetrahydronaphthalen-1-yl)ureido)pyrimidine-2-carboxamide partial formate salt]
IC50 (p38 alpha): < 1 nM | IC50 [1]: > 5 nM

CCC(C)(C)c1nnc2ccc(O[C@@H]3CC[C@H](NC(=O)Nc4cc(C(C)(C)C)nc(C(=O)NCCN(C)CCOC)n4)c4ccccc43)cn12 [Example 4]
IC50 (p38 alpha): < 1 nM | IC50 [1]: 1 to 5 nM

CCN(C)CCNC(=O)c1cc(NC(=O)N[C@H]2CC[C@@H](Oc3ccc4nnc(C(C)(C)C)n4c3)c3ccccc32)cc(C(C)(C)C)n1 [Example 191, 6-(tert-butyl)-4-(3-((1S,4R)-4-((3-(tert-butyl)-[1,2,4]triazolo[4,3-a]pyridin-6-yl)oxy)-1,2,3,4-tetrahydronaphthalen-1-yl)ureido)-N-(2-(ethyl(methyl)amino)-ethyl)picolinamide]
IC50 (p38 alpha): 1 to 10 nM | IC50 [1]: 1 to 5 nM

CN(C)C(C)(C)CNC(=O)c1nc(NC(=O)N[C@H]2CC[C@@H](Oc3ccc4nnc(C(C)(C)C)n4c3)c3ccccc32)cc(C(C)(C)C)n1 [Example 117, 4-(tert-butyl)-6-(3-((1S,4R)-4-((3-(tert-butyl)-[1,2,4]triazolo[4,3-a]pyridin-6-yl)oxy)-1,2,3,4-tetrahydronaphthalen-1-yl)ureido)-N-(2-(dimethylamino)-2-methylpropyl)pyrimidine-2-carboxamide]
IC50 (p38 alpha): < 1 nM | IC50 [1]: < 1 nM

COCC(C)(C)c1nnc2ccc(O[C@@H]3CC[C@H](NC(=O)Nc4cc(C(C)(C)C)nc(C(=O)NCCN(C)C)n4)c4ccccc43)cn12 [Example 54, 4-(tert-Butyl)-N-(2-(dimethylamino)ethyl)-6-(3-((1S,4R)-4-((3-(methoxy-2-methylpropan-2-yl)-[1,2,4]triazolo[4,3-a]pyridin-6-yl)oxy)-1,2,3,4-tetrahydronaphthalen-1-yl)ureido)pyrimidine-2-carboxamide]
IC50 (p38 alpha): < 1 nM | IC50 [1]: 1 to 5 nM

CC[C@H](C)c1nnc2ccc(O[C@@H]3CC[C@H](NC(=O)Nc4cc(C(C)(C)C)nc(C(=O)NCCN(C)CCOC)n4)c4ccccc43)cn12 [Example 105, 4-(tert-butyl)-6-(3-((1S,4R)-4-((3-((S)-sec-butyl)-[1,2,4]triazolo[4,3-a]pyridin-6-yl)oxy)-1,2,3,4-tetrahydronaphthalen-1-yl)ureido)-N-(2-((2-methoxyethyl)(methyl)-amino)ethyl)pyrimidine-2-carboxamide]
IC50 (p38 alpha): < 1 nM | IC50 [1]: 1 to 5 nM

CCC(CC)c1nnc2ccc(O[C@@H]3CC[C@H](NC(=O)Nc4cc(C(C)(C)C)nc(C(=O)NCCN(CCOC)CCOC)n4)c4ccccc43)cn12 [Example 85, N-(2-(bis(2-methoxyethyl)amino)ethyl)-4-(tert-butyl)-6-(3-((1S,4R)-4-((3-(pentan-3-yl)-[1,2,4]triazolo[4,3-a]pyridin-6-yl)oxy)-1,2,3,4-tetrahydronaphthalen-1-yl)ureido)pyrimidine-2-carboxamide]
IC50 (p38 alpha): < 1 nM | IC50 [1]: > 5 nM

CN1CCN(C(C)(C)CNC(=O)c2nc(NC(=O)N[C@H]3CC[C@@H](Oc4ccc5nnc(C(C)(C)C)n5c4)c4ccccc43)cc(C(C)(C)C)n2)CC1 [Example 151, 4-(tert-butyl)-6-(3-((1S,4R)-4-((3-(tert-butyl)-[1,2,4]triazolo[4,3-a]pyridin-6-yl)oxy)-1,2,3,4-tetrahydronaphthalen-1-yl)ureido)-N-(2-methyl-2-(4-methylpiperazin-1-yl)propyl)pyrimidine-2-carboxamide]
IC50 (p38 alpha): < 1 nM | IC50 [1]: > 5 nM

CN(C)CCNC(=O)c1nc(NC(=O)N[C@H]2CC[C@@H](Oc3ccc4nnc([C@@H]5COCCN5C)n4c3)c3ccccc32)cc(C(C)(C)C)n1 [Example 214, 4-(tert-Butyl)-N-(2-(dimethylamino)ethyl)-6-(3-((1S,4R)-4-((3-((R)-4-methylmorpholin-3-yl)-[1,2,4]triazolo[4,3-a]pyridin-6-yl)oxy)-1,2,3,4-tetrahydronaphthalen-1-yl)ureido)pyrimidine-2-carboxamide]
IC50 (p38 alpha): 1 to 10 nM | IC50 [1]: > 5 nM

COCC(C)(C)c1nnc2ccc(O[C@@H]3CC[C@H](NC(=O)Nc4cc(C(C)(C)C)nc(C(=O)NCCCN5CCOCC5)n4)c4ccccc43)cn12 [Example 121, 4-(tert-butyl)-6-(3-((1S,4R)-4-((3-(1-methoxy-2-methylpropan-2-yl)-[1,2,4]triazolo[4,3-a]pyridin-6-yl)oxy)-1,2,3,4-tetrahydronaphthalen-1-yl)ureido)-N-(3-morpholinopropyl)-pyrimidine-2-carboxamide]
IC50 (p38 alpha): < 1 nM | IC50 [1]: 1 to 5 nM

CC(C)(C)c1cc(NC(=O)N[C@H]2CC[C@@H](Oc3ccc4nnc(C(C)(C)C)n4c3)c3ccccc32)cc(C(=O)NCCN2CCCOCC2)n1 [Example 189, N-(2-(1,4-oxazepan-4-yl)ethyl)-6-(tert-butyl)-4-(3-((1S,4R)-4-((3-(tert-butyl)-[1,2,4]triazolo[4,3-a]pyridin-6-yl)oxy)-1,2,3,4-tetrahydronaphthalen-1-yl)ureido)picolinamide]
IC50 (p38 alpha): 1 to 10 nM | IC50 [1]: 1 to 5 nM

CN1CCC[C@H]1C(=O)NCc1nc(NC(=O)N[C@H]2CC[C@@H](Oc3ccc4nnc(C(C)(C)C)n4c3)c3ccccc32)cc(C(C)(C)C)n1 [Example 110, (S)-N-((4-(tert-butyl)-6-(3-((1S,4R)-4-((3-(tert-butyl)-[1,2,4]triazolo[4,3-a]pyridin-6-yl)oxy)-1,2,3,4-tetrahydronaphthalen-1-yl)ureido)pyrimidin-2-yl)methyl)-1-methylpyrrolidine-2-carboxamide]
IC50 (p38 alpha): 1 to 10 nM | IC50 [1]: 1 to 5 nM

CC(C)(C)c1cc(NC(=O)N[C@H]2CC[C@@H](Oc3ccc4nnc(C(C)(C)C)n4c3)c3ccccc32)nc(C(=O)NCCN2CC[C@@H](O)C2)n1 [Example 93, 4-(tert-butyl)-6-(3-((1S,4R)-4-((3-(tert-butyl)-[1,2,4]triazolo[4,3-a]pyridin-6-yl)oxy)-1,2,3,4-tetrahydronaphthalen-1-yl)ureido)-N-(2-((R)-3-hydroxypyrrolidin-1-yl)ethyl)pyrimidine-2-carboxamide]
IC50 (p38 alpha): < 1 nM | IC50 [1]: > 5 nM

CN(C)CCNC(=O)c1nc(NC(=O)N[C@H]2CC[C@@H](Oc3ccc4nnc([C@]5(C)CCCN5)n4c3)c3ccccc32)cc(C(C)(C)C)n1 [Example 34, 4-(tert-Butyl)-N-(2-(dimethylamino)ethyl)-6-(3-((1S,4R)-4-((3-((S)-2-methylpyrrolidin-2-yl)-[1,2,4]triazolo[4,3-a]pyridin-6-yl)oxy)-1,2,3,4-tetrahydronaphthalen-1-yl)ureido)pyrimidine-2-carboxamide]
IC50 (p38 alpha): 1 to 10 nM | IC50 [1]: > 5 nM

CC(C)(C)c1cc(NC(=O)N[C@H]2CC[C@@H](Oc3ccc4nnc(C(C)(C)C)n4c3)c3ccccc32)nc(C(=O)NCCN2CC[C@H](O)C2)n1 [Example 94, 4-(tert-butyl)-6-(3-((1S,4R)-4-((3-(tert-butyl)-[1,2,4]triazolo[4,3-a]pyridin-6-yl)oxy)-1,2,3,4-tetrahydronaphthalen-1-yl)ureido)-N-(2-((S)-3-hydroxypyrrolidin-1-yl)ethyl)pyrimidine-2-carboxamide]
IC50 (p38 alpha): < 1 nM | IC50 [1]: > 5 nM

COC(C)(C)c1nnc2ccc(O[C@@H]3CC[C@H](NC(=O)Nc4cc(C(C)(C)C)nc(C(=O)NCCN(C)CCO)n4)c4ccccc43)cn12 [Example 125, 4-(tert-butyl)-N-(2-((2-hydroxyethyl)(methyl)-amino)ethyl)-6-(3-((1S,4R)-4-((3-(2-methoxypropan-2-yl)-[1,2,4]triazolo[4,3-a]pyridin-6-yl)oxy)-1,2,3,4-tetrahydronaphthalen-1-yl)ureido)pyrimidine-2-carboxamide]
IC50 (p38 alpha): 1 to 10 nM | IC50 [1]: > 5 nM

CC(C)(C)c1cc(NC(=O)N[C@H]2CC[C@@H](Oc3ccc4nnc(C5CCCC5)n4c3)c3ccccc32)nc(C(=O)NCCO)n1 [Example 64]
IC50 (p38 alpha): < 1 nM | IC50 [1]: > 5 nM
